Reference: the NIST ThermoML archive (doi:10.1016/j.jct.2013.05.009)
Numbers after ± are expanded uncertainties.

Assay: xn = mol fraction of the nth substance listed
Conditions: 101 kPa, Liquid; for mass density: Vibrating tube method; for speed of sound: fixed-path interferometer

CCCCO [butan-1-ol] + Cc1ccccc1
Conditions	mass density, 298.15 K [kg/m3]	mass density, 308.15 K [kg/m3]	mass density, 318.15 K [kg/m3]	mass density, 328.15 K [kg/m3]	speed of sound, 298.15 K [m/s]	speed of sound, 308.15 K [m/s]	speed of sound, 318.15 K [m/s]	speed of sound, 328.15 K [m/s]
x2 = 0	805.71 ± 0.15	798.05 ± 0.15	790.36 ± 0.15	782.56 ± 0.15	1240 ± 1.2	1206.6 ± 1.2	1173.4 ± 1.2	1140.4 ± 1.2
x2 = 0.02621	807.5 ± 0.15	799.76 ± 0.15	791.98 ± 0.15	784.09 ± 0.15	1241.1 ± 1.2	1207.3 ± 1.2	1173.8 ± 1.2	1140.4 ± 1.2
x2 = 0.06979	810.42 ± 0.15	802.54 ± 0.15	794.62 ± 0.15	786.6 ± 0.15	1242.9 ± 1.2	1208.6 ± 1.2	1174.5 ± 1.2	1140.6 ± 1.2
x2 = 0.1334	814.51 ± 0.15	806.45 ± 0.15	798.34 ± 0.15	790.12 ± 0.15	1245.4 ± 1.2	1210.3 ± 1.2	1175.4 ± 1.2	1140.8 ± 1.2
x2 = 0.1909	818.08 ± 0.14	809.86 ± 0.15	801.59 ± 0.15	793.21 ± 0.15	1247.6 ± 1.2	1211.8 ± 1.2	1176.3 ± 1.2	1141 ± 1.2
x2 = 0.2606	822.26 ± 0.14	813.87 ± 0.15	805.42 ± 0.15	796.86 ± 0.15	1250.1 ± 1.2	1213.6 ± 1.2	1177.4 ± 1.2	1141.5 ± 1.2
x2 = 0.3391	826.8 ± 0.14	818.22 ± 0.14	809.59 ± 0.15	800.85 ± 0.15	1252.9 ± 1.2	1215.6 ± 1.2	1178.6 ± 1.2	1142 ± 1.2
x2 = 0.4066	830.59 ± 0.14	821.86 ± 0.14	813.1 ± 0.15	804.22 ± 0.15	1255.4 ± 1.2	1217.5 ± 1.2	1180 ± 1.2	1142.8 ± 1.2
x2 = 0.473	834.2 ± 0.14	825.36 ± 0.14	816.47 ± 0.14	807.48 ± 0.15	1258 ± 1.2	1219.6 ± 1.2	1181.6 ± 1.2	1144.1 ± 1.2
x2 = 0.5406	837.84 ± 0.14	828.87 ± 0.14	819.88 ± 0.14	810.78 ± 0.15	1261 ± 1.2	1222 ± 1.2	1183.7 ± 1.2	1145.7 ± 1.2
x2 = 0.6007	841.01 ± 0.14	831.96 ± 0.14	822.88 ± 0.14	813.7 ± 0.15	1263.9 ± 1.2	1224.6 ± 1.2	1185.9 ± 1.2	1147.6 ± 1.2
x2 = 0.6711	844.68 ± 0.14	835.54 ± 0.14	826.37 ± 0.14	817.12 ± 0.14	1267.8 ± 1.2	1228.2 ± 1.2	1189.1 ± 1.2	1150.5 ± 1.2
x2 = 0.7376	848.14 ± 0.14	838.93 ± 0.14	829.68 ± 0.14	820.37 ± 0.14	1272.3 ± 1.2	1232.3 ± 1.2	1192.8 ± 1.2	1154 ± 1.2
x2 = 0.7967	851.2 ± 0.14	841.92 ± 0.14	832.63 ± 0.14	823.27 ± 0.14	1277 ± 1.2	1236.8 ± 1.2	1197.1 ± 1.2	1158 ± 1.2
x2 = 0.8691	854.94 ± 0.14	845.61 ± 0.14	836.27 ± 0.14	826.88 ± 0.14	1284.3 ± 1.2	1243.8 ± 1.2	1203.8 ± 1.2	1164.4 ± 1.2
x2 = 0.9327	858.35 ± 0.13	848.98 ± 0.14	839.62 ± 0.14	830.24 ± 0.14	1293.6 ± 1.2	1252.7 ± 1.2	1212.2 ± 1.2	1171.9 ± 1.2
x2 = 0.9649	860.1 ± 0.13	850.75 ± 0.14	841.43 ± 0.14	832.09 ± 0.14	1299.9 ± 1.2	1258.4 ± 1.2	1217 ± 1.2	1175.9 ± 1.2
